In patent publication US11718618B2, “Substituted pyrido[2,1-a]isoquinolines as VMAT2 inhibitors” (priority 2021, dated 2023):

Key:
human VMAT2 = human VMAT2 (Homo sapiens (Human), UniProt Q05940); assay: VMAT2 radioligand binding, 3H-dihydrotetrabenazine competition on human platelet homogenate; conditions: 10 nM 3H-dihydrotetrabenazine, human platelet homogenate, 25° C., 90 minutes; read-out: VMAT2 Ki
Experimental: Examples of techniques for determining the capability of a compound to inhibit VMAT2 are provided below. The procedure was adapted from that described previously (see, e.g., Near, (1986), Mol. Pharmacol. 30: 252-57; Teng, et al., J. Neurochem. 71, 258-65, 1998). Homogenates from human platelets were prepared by homogenization and then washed by centrifugation as described previously (see, e.g., Hoare et al., (2003) Peptides 24:1881-97).
The human VMAT2 Ki values for the compounds listed in Table 15A and Table 15B were determined using the following procedures. Compound dilution series in DMSO were generated from either powder stocks by hand, or from DMSO stocks using serial dilution on a Vantage (Hamilton), or direct dilution using an Echo 655 (Beckman). In a total volume of 0.145 to 0.150 mL in low-binding 96-well plates (Corning #3605), twelve concentrations of test compound were competed against 10 nM ^3H-dihydrotetrabenezine (American Radiolabeled Chemicals) on human platelet homogenate (30 μg membrane protein per well) in VMAT2 binding buffer (Dulbecco's phosphate buffered saline, 1 mM EDTA, pH 7.4). Following incubation at 25° C. for 90 minutes, bound radioligand was collected by rapid filtration onto either GF/B or GF/C glass fiber filters, pretreated with 0.100 polyethylenimine, using either a Unifilter-96 Harvester (PerkinElmer) or Microlab Star (Hamilton). Following harvesting the filter plates were washed with 0.8 mL VMAT2 binding buffer, and bound radioligand was quantified by scintillation counting using a Topcount NXT or Microplate Counter Microbeta (PerkinElmer).

[1] = Stability of compounds in human liver microsomes; type: in vitro ADME; conditions: for CLint scaled at 0.5 μM / half-life at 0.5 μM: both sexes, pH 7.4; for CLint scaled at 0.5 μM: liver microsomes, calculated from HLM half-life, read-out: HLM Scaled Intrinsic Clearance; for CLint scaled at 0.5 μM / Predicted Max. Bioavailability (% F) / HLM Predicted Systemic Clearance: human; for half-life at 0.5 μM: 0.5 μM compound, 0.5 mg/mL human liver microsomes, 37° C., maxed at 420 minutes, read-out: HLM Elimination half-life (t1/2, min); for Predicted Max. Bioavailability (% F): predicted from HLM data; for HLM Predicted Systemic Clearance: scaled from HLM half-life (Obach method)
Experimental: A test compound (0.5 μM) was incubated with pooled mixed gender liver microsomes from humans (0.5 mg/mL total protein) at 37° C. in the presence of an NADPH-generating system containing 50 mM, pH 7.4 potassium phosphate buffer, 3 mM magnesium chloride, 1 mM EDTA, 1 mM NADP, 5 mM glusose-6-phosphate, and 1 Unit/mL glucose-6-phosphate dehydrogenase. All concentrations were relative to the final incubation volume of 125 μL. Incubations were conducted at 37° C. for 0, 5, 10, 20, 40, and 60 minutes in a water bath and terminated by rapid mixing with 150 μL of ice-cold acetonitrile containing internal standard. Precipitated proteins were removed by centrifugation prior to LC-MS/MS analysis. Aliquots of the resulting supernatant fractions were analyzed by LC-MS/MS monitoring for depletion of parent compound. The resultant peak area ratio versus time data was fitted to a non-linear regression using XLfit Scientific Curve Fitting Software (IDBS Ltd., Surrey, UK) and the elimination half-life (t1/2, min) was calculated from the slope. […] Additional values calculated included predicted extraction ratio and predicted maximum bioavailability.

Chain of human VMAT2 (Q05940 whole entry): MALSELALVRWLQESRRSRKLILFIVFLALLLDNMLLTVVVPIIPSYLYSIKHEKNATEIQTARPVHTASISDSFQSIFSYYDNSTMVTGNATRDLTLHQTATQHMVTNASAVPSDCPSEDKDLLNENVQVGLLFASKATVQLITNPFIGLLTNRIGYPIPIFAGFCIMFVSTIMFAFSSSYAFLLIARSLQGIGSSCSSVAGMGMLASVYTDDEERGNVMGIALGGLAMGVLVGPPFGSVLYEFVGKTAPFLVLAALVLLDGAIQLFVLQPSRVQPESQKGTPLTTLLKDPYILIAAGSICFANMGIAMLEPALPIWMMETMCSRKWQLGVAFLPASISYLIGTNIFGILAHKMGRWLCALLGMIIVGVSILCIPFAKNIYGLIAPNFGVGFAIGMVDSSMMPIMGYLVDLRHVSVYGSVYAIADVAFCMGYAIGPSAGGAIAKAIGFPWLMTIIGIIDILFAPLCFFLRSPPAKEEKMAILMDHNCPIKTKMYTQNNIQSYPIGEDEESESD

COc1cc2c(cc1OCCC(F)(F)F)CCN1C[C@H](CC(C)(C)C)[C@@H](O)C[C@@H]21 [Compound 4-9, (2S,3S,11bS)-3-(2,2-dimethylpropyl)-10-methoxy-9-(3,3,3-trifluoropropoxy)-1H,2H,3H,4H,6H,7H,11bH-pyrido[2,1-a]isoquinolin-2-ol]
Ki (human VMAT2): 277 nM | CLint scaled at 0.5 μM [1]: ≤ 2.97 mL/min/kg | half-life at 0.5 μM [1]: ≥ 420 min | Predicted Max. Bioavailability (% F) [1]: ≥87 % F | HLM Predicted Systemic Clearance [1]: ≤2.59 mL/min/kg

COc1cc2c(cc1OCC(F)F)CCN1C[C@@H](CC(C)(C)C)[C@@H](O)C[C@H]21 [Compound 4-10, (2S,3R,11bR)-9-(2,2-difluoroethoxy)-3-(2,2-dimethylpropyl)-10-methoxy-1H,2H,3H,4H,6H,7H,11bH-pyrido[2,1-a]isoquinolin-2-ol]
Ki (human VMAT2): 15 nM | CLint scaled at 0.5 μM [1]: 3.65 mL/min/kg | half-life at 0.5 μM [1]: 342 min | Predicted Max. Bioavailability (% F) [1]: 85 % F | HLM Predicted Systemic Clearance [1]: 3.09 mL/min/kg

COc1cc2c(cc1OCC(C)(F)F)CCN1C[C@@H](CC(C)(C)C)[C@@H](O)C[C@H]21 [Compound 4-11, (2S,3R,11bR)-9-(2,2-difluoropropoxy)-3-(2,2-dimethylpropyl)-10-methoxy-1H,2H,3H,4H,6H,7H,11bH-pyrido[2,1-a]isoquinolin-2-ol]
Ki (human VMAT2): 14 nM | CLint scaled at 0.5 μM [1]: ≤ 2.97 mL/min/kg | half-life at 0.5 μM [1]: ≥ 420 min | Predicted Max. Bioavailability (% F) [1]: ≥87 % F | HLM Predicted Systemic Clearance [1]: ≤2.59 mL/min/kg

COc1cc2c(cc1OCCC(F)(F)F)CCN1C[C@@H](CC(C)(C)C)[C@@H](O)C[C@H]21 [Compound 4-12, (2S,3R,11bR)-3-(2,2-dimethylpropyl)-10-methoxy-9-(3,3,3-trifluoropropoxy)-1H,2H,3H,4H,6H,7H,11bH-pyrido[2,1-a]isoquinolin-2-ol]
Ki (human VMAT2): 3.4 nM | CLint scaled at 0.5 μM [1]: ≤ 2.97 mL/min/kg | half-life at 0.5 μM [1]: ≥ 420 min | Predicted Max. Bioavailability (% F) [1]: ≥87 % F | HLM Predicted Systemic Clearance [1]: ≤2.59 mL/min/kg

COc1cc2c(cc1OCC(F)F)CCN1C[C@@H](CC(C)(C)C)[C@H](O)C[C@H]21 [Compound 4-13, (2R,3R,11bR)-9-(2,2-difluoroethoxy)-3-(2,2-dimethylpropyl)-10-methoxy-1H,2H,3H,4H,6H,7H,11bH-pyrido[2,1-a]isoquinolin-2-ol]
Ki (human VMAT2): 2.2 nM | CLint scaled at 0.5 μM [1]: ≤ 2.97 mL/min/kg | half-life at 0.5 μM [1]: ≥ 420 min | Predicted Max. Bioavailability (% F) [1]: ≥87 % F | HLM Predicted Systemic Clearance [1]: ≤2.59 mL/min/kg

COc1cc2c(cc1OCC(C)(F)F)CCN1C[C@@H](CC(C)(C)C)[C@H](O)C[C@H]21 [Compound 4-14, (2R,3R,11bR)-9-(2,2-difluoropropoxy)-3-(2,2-dimethylpropyl)-10-methoxy-1H,2H,3H,4H,6H,7H,11bH-pyrido[2,1-a]isoquinolin-2-ol]
Ki (human VMAT2): 2.6 nM | CLint scaled at 0.5 μM [1]: ≤ 2.97 mL/min/kg | half-life at 0.5 μM [1]: ≥ 420 min | Predicted Max. Bioavailability (% F) [1]: ≥87 % F | HLM Predicted Systemic Clearance [1]: ≤2.59 mL/min/kg

COc1cc2c(cc1OCC(F)(F)F)CCN1C[C@@H](CC(C)(C)C)[C@@H](O)C[C@H]21 [Compound 4-16, (2S,3R,11bR)-3-(2,2-dimethylpropyl)-10-methoxy-9-(2,2,2-trifluoroethoxy)-1H,2H,3H,4H,6H,7H,11bH-pyrido[2,1-a]isoquinolin-2-ol]
Ki (human VMAT2): 22 nM | CLint scaled at 0.5 μM [1]: ≤ 2.97 mL/min/kg | half-life at 0.5 μM [1]: ≥ 420 min | Predicted Max. Bioavailability (% F) [1]: ≥87 % F | HLM Predicted Systemic Clearance [1]: ≤2.59 mL/min/kg

CCOc1cc2c(cc1OC)[C@H]1C[C@@H](O)[C@H](CC(C)(C)C)CN1CC2 [Compound 4-17, (2R,3R,11bR)-3-(2,2-dimethylpropyl)-9-ethoxy-10-methoxy-1H,2H,3H,4H,6H,7H,11bH-pyrido[2,1-a]isoquinolin-2-ol]
Ki (human VMAT2): 1.1 nM | CLint scaled at 0.5 μM [1]: 32.9 mL/min/kg | half-life at 0.5 μM [1]: 38 min | Predicted Max. Bioavailability (% F) [1]: 38 % F | HLM Predicted Systemic Clearance [1]: 12.44 mL/min/kg

COc1cc2c(cc1OCCF)CCN1C[C@@H](CC(C)(C)C)[C@H](O)C[C@H]21 [Compound 4-18, (2R,3R,11bR)-3-(2,2-dimethylpropyl)-9-(2-fluoroethoxy)-10-methoxy-1H,2H,3H,4H,6H,7H,11bH-pyrido[2,1-a]isoquinolin-2-ol]
Ki (human VMAT2): 5.5 nM | CLint scaled at 0.5 μM [1]: 8.05 mL/min/kg | half-life at 0.5 μM [1]: 155 min | Predicted Max. Bioavailability (% F) [1]: 71 % F | HLM Predicted Systemic Clearance [1]: 5.74 mL/min/kg

COc1cc2c(cc1OCC1(F)COC1)CCN1C[C@@H](CC(C)(C)C)[C@H](O)C[C@H]21 [Compound 4-19, (2R,3R,11bR)-3-(2,2-dimethylpropyl)-9-[(3-fluorooxetan-3-yl)methoxy]-10-methoxy-1H,2H,3H,4H,6H,7H,11bH-pyrido[2,1-a]isoquinolin-2-ol]
Ki (human VMAT2): 8.1 nM | CLint scaled at 0.5 μM [1]: 14.2 mL/min/kg | half-life at 0.5 μM [1]: 88 min | Predicted Max. Bioavailability (% F) [1]: 59 % F | HLM Predicted Systemic Clearance [1]: 8.3 mL/min/kg

COc1cc2c(cc1OCC1COC1)CCN1C[C@@H](CC(C)(C)C)[C@H](O)C[C@H]21 [Compound 4-22, (2R,3R,11bR)-3-(2,2-dimethylpropyl)-10-methoxy-9-(oxetan-3-ylmethoxy)-1H,2H,3H,4H,6H,7H,11bH-pyrido[2,1-a]isoquinolin-2-ol]
Ki (human VMAT2): 14 nM | CLint scaled at 0.5 μM [1]: 9.6 mL/min/kg | half-life at 0.5 μM [1]: 130 min | Predicted Max. Bioavailability (% F) [1]: 68 % F | HLM Predicted Systemic Clearance [1]: 6.49 mL/min/kg

COc1cc2c(cc1OCCOC1(C#N)CCC1)CCN1C[C@@H](CC(C)(C)C)[C@H](O)C[C@H]21 [Compound 4-23, 1-(2-{[(2R,3R,11bR)-3-(2,2-dimethylpropyl)-2-hydroxy-10-methoxy-1H,2H,3H,4H,6H,7H,11bH-pyrido[2,1-a]isoquinolin-9-yl]oxy}ethoxy)cyclobutane-1-carbonitrile]
Ki (human VMAT2): 0.41 nM | CLint scaled at 0.5 μM [1]: 58.5 mL/min/kg | half-life at 0.5 μM [1]: 21 min | Predicted Max. Bioavailability (% F) [1]: 25 % F | HLM Predicted Systemic Clearance [1]: 14.9 mL/min/kg

COc1cc2c(cc1OCC#N)CCN1C[C@@H](CC(C)(C)C)[C@H](O)C[C@H]21 [Compound 4-24, 2-{[(2R,3R,11bR)-3-(2,2-dimethylpropyl)-2-hydroxy-10-methoxy-1H,2H,3H,4H,6H,7H,11bH-pyrido[2,1-a]isoquinolin-9-yl]oxy}acetonitrile]
Ki (human VMAT2): 35 nM | CLint scaled at 0.5 μM [1]: 10.7 mL/min/kg | half-life at 0.5 μM [1]: 117 min | Predicted Max. Bioavailability (% F) [1]: 65 % F | HLM Predicted Systemic Clearance [1]: 6.97 mL/min/kg

COc1cc2c(cc1OCC1(O)CCC1)CCN1C[C@@H](CC(C)(C)C)[C@H](O)C[C@H]21 [Compound 4-25, (2R,3R,11bR)-3-(2,2-dimethylpropyl)-9-[(1-hydroxycyclobutyl)methoxy]-10-methoxy-1H,2H,3H,4H,6H,7H,11bH-pyrido[2,1-a]isoquinolin-2-ol]
Ki (human VMAT2): 5.5 nM | CLint scaled at 0.5 μM [1]: 11.4 mL/min/kg | half-life at 0.5 μM [1]: 109 min | Predicted Max. Bioavailability (% F) [1]: 64 % F | HLM Predicted Systemic Clearance [1]: 7.26 mL/min/kg

COCCOc1cc2c(cc1OC)[C@H]1C[C@@H](O)[C@H](CC(C)(C)C)CN1CC2 [Compound 4-26, (2R,3R,11bR)-3-(2,2-dimethylpropyl)-10-methoxy-9-(2-methoxyethoxy)-1H,2H,3H,4H,6H,7H,11bH-pyrido[2,1-a]isoquinolin-2-ol]
Ki (human VMAT2): 14 nM | CLint scaled at 0.5 μM [1]: 14.2 mL/min/kg | half-life at 0.5 μM [1]: 88 min | Predicted Max. Bioavailability (% F) [1]: 58 % F | HLM Predicted Systemic Clearance [1]: 8.32 mL/min/kg

COc1cc2c(cc1OCCCF)CCN1C[C@@H](CC(C)(C)C)[C@H](O)C[C@H]21 [Compound 4-28, (2R,3R,11bR)-3-(2,2-dimethylpropyl)-9-(3-fluoropropoxy)-10-methoxy-1H,2H,3H,4H,6H,7H,11bH-pyrido[2,1-a]isoquinolin-2-ol]
Ki (human VMAT2): 0.48 nM | CLint scaled at 0.5 μM [1]: 31.8 mL/min/kg | half-life at 0.5 μM [1]: 39 min | Predicted Max. Bioavailability (% F) [1]: 39 % F | HLM Predicted Systemic Clearance [1]: 12.28 mL/min/kg
